Measured values published in PubChem BioAssay AID1996.
Converted amounts (≈) assume the structure as drawn.

Conditions: buffer; pH 7.4; 200.0 µM

Compared with CC(C)(C)c1ccc(-c2noc(CCC(=O)Nc3cccnc3)n2)cc1, CCCNC(=O)c1ccc(COc2ccc(C(C)(C)C)cc2)o1 is 3.5-fold higher in solubility kinetic: 3.1 µg/mL (≈ 8.85 µM) for the first, 10.9 µg/mL (≈ 34.6 µM) for the second.

First: Cc1ccc(CNc2ccc(N3CCOCC3)cc2)cc1
Second: O=[N+]([O-])c1ccc(-c2ccc(S(=O)(=O)N3CCOCC3)cc2)cc1
The solubility kinetic of the first is higher: > 42.4 µg/mL for the first, < 0.4 µg/mL for the second.

Going from COCC[N+]1(C)CCCCC1.[I-] to COCCNc1nc(N)c([N+](=O)[O-])c(N2CCCCCC2)n1, the solubility kinetic falls from > 42.8 µg/mL to 6.3 µg/mL (≈ 20.3 µM).

CC(C)Oc1ccc(C(=O)NCCCNC(=O)c2ccccn2)cc1 and Cc1ccc(OCC(=O)NCCNC(=O)c2ccccn2)cc1 are within 1.5-fold of each other in solubility kinetic: 48.6 µg/mL (≈ 142 µM) for the first, 46.9 µg/mL (≈ 150 µM) for the second.

COc1ccc(CCNC(=O)c2cc(C)oc2C)cc1 and CCCN(CC(=O)Nc1ccccc1C)C(=O)c1cc(C)oc1C cannot be ordered by solubility kinetic: > 41 µg/mL for the first, > 49.3 µg/mL for the second.

Going from COc1ccccc1NC(=O)Nc1cccnc1 to COc1ccccc1NC(=O)Cc1cccc2ccccc12, the solubility kinetic falls from 34.6 µg/mL (≈ 142 µM) to 2.1 µg/mL (≈ 7.21 µM) (16-fold).

Going from O=C1CN(C(=O)COC(=O)[C@@H]2CCCN2S(=O)(=O)c2ccc(Cl)cc2)c2ccccc2N1 to O=C(COC(=O)c1ccco1)Nc1cc(S(=O)(=O)N2CCCCC2)ccc1Cl, the solubility kinetic falls from 59.1 µg/mL (≈ 124 µM) to 6.7 µg/mL (≈ 15.7 µM) (8.8-fold).

Compared with COc1ccccc1C1NC(=O)c2ccccc2O1 (stereo not given), COc1cccc2cc(C(=O)N3CCCc4ccccc43)oc12 is lower in solubility kinetic: > 38.3 µg/mL for the first, 15.3 µg/mL (≈ 49.8 µM) for the second.

Going from Cc1ccc(S(=O)(=O)N(C)C)cc1NC(=O)CCc1ccccc1 to Cc1cccc(NC(=O)c2ccc(S(=O)(=O)N(C)c3ccccc3)cc2)n1, the solubility kinetic falls from 49.9 µg/mL (≈ 144 µM) to 11.6 µg/mL (≈ 30.4 µM) (4.3-fold).

First: CCCOc1ccc(C2NC(=O)CCC2[N+](=O)[O-])cc1 (stereo not given)
Second: COc1ccc(C(=O)Nc2ccc(NC(=O)C3CC3)cn2)cc1
The solubility kinetic of the first is higher: > 41.7 µg/mL for the first, 5.8 µg/mL (≈ 18.6 µM) for the second.

First: C[C@H](NC(=O)C(c1ccccc1)c1ccccc1)c1ccccc1
Second: CN(c1ccccc1C(=O)NCc1ccccc1Cl)S(=O)(=O)c1ccccc1
The solubility kinetic of the first is 3.7-fold lower: 8.5 µg/mL (≈ 26.9 µM) for the first, 31.3 µg/mL (≈ 75.4 µM) for the second.

O=C(/C=C/c1ccco1)N(Cc1ccc(Cl)cc1)C1CCS(=O)(=O)C1 (stereo not given) and COc1ccc(N(CC(=O)NC2CCS(=O)(=O)C2)S(=O)(=O)c2cc(C)ccc2C)cc1 (stereo not given) are within 1.5-fold of each other in solubility kinetic: 46.2 µg/mL (≈ 122 µM) for the first, 66.3 µg/mL (≈ 142 µM) for the second.

Compared with CCC1CN(C(=O)NCc2ccc(C)cc2)c2cc(Cl)ccc2O1 (stereo not given), Cc1ccc2c(CN(C)Cc3ccc(Cl)cc3)cc(=O)oc2c1 is higher in solubility kinetic: < 0.4 µg/mL for the first, 1.9 µg/mL (≈ 5.8 µM) for the second.

NS(=O)(=O)c1ccc(S(=O)(=O)N2CCN(C3CCCC3)CC2)cc1 and CCC(C)c1ccc(S(=O)(=O)N2CCN3CCCC3C2)cc1 (stereo not given) are within 1.5-fold of each other in solubility kinetic: 47.8 µg/mL (≈ 128 µM) for the first, 34.1 µg/mL (≈ 106 µM) for the second.

CCc1cc2c(SCc3ccc(C(=O)OC)o3)ncnc2s1 and COC(=O)CSc1nc2ccc(C)cc2cc1C#N are within 1.5-fold of each other in solubility kinetic: 1.8 µg/mL (≈ 5.38 µM) for the first, 1.9 µg/mL (≈ 6.98 µM) for the second.

CC1(CCl)CN1S(=O)(=O)c1ccccc1 (stereo not given) and Cc1c(C(C)(C)C)s/c(=N/S(=O)(=O)c2ccccc2)n1C are within 1.5-fold of each other in solubility kinetic: 30.8 µg/mL (≈ 125 µM) for the first, 43.7 µg/mL (≈ 135 µM) for the second.

CC(=O)c1cccc(NC(=O)CSc2nc3ccccc3c(=O)n2CCCN2CCOCC2)c1 and CC(=O)Nc1cccc(C(=O)OC2CCOC2=O)c1 (stereo not given) cannot be ordered by solubility kinetic: > 72.1 µg/mL for the first, > 39.5 µg/mL for the second.

Going from C=CCSc1ncccc1C(=O)NCCc1ccc(Cl)cc1 to O=C(NCc1ccc(F)cc1)c1cccnc1, the solubility kinetic rises from 3.6 µg/mL (≈ 10.8 µM) to > 34.5 µg/mL.

CC(C)(C)n1cnnc1Sc1ccc([N+](=O)[O-])cn1 and COc1ccc(CNC(=O)Cn2ccc([N+](=O)[O-])n2)cc1OC cannot be ordered by solubility kinetic: > 41.9 µg/mL for the first, > 48 µg/mL for the second.

Compared with Cc1cccc(NC(=O)Cn2nc(-c3ccco3)ccc2=O)c1C, Cc1cc(NC(=O)c2ccco2)c(=O)n(Cc2cccc(C(F)(F)F)c2)c1 is lower in solubility kinetic: > 48.5 µg/mL for the first, < 0.4 µg/mL for the second.

Compared with O=C(Cc1nc2ccccc2[nH]1)c1ccc(Cl)cc1, COc1cccc(C(=O)c2cc3cc(Cl)ccc3[nH]2)c1 is lower in solubility kinetic: 24.2 µg/mL (≈ 89.4 µM) for the first, < 0.6 µg/mL for the second.

First: O=C1c2ccccc2NC(c2cccc(O)c2)N1c1ccccc1 (stereo not given)
Second: Oc1ccccc1-c1nc(NCc2ccccc2)c2ccccc2n1
The solubility kinetic of the first is higher: 2.9 µg/mL (≈ 9.17 µM) for the first, < 0.2 µg/mL for the second.

Compared with Cc1cccc(NC(=O)NCC2CC2)c1, CC(=O)c1sc(Nc2cccc(C)c2)nc1C is lower in solubility kinetic: > 30.6 µg/mL for the first, 3 µg/mL (≈ 12.2 µM) for the second.

Cc1ccsc1/C=C(\C#N)C(=O)NCCCN1CCOCC1 and CC(C(=O)N1CCOCC1)n1cc([N+](=O)[O-])cn1 (stereo not given) cannot be ordered by solubility kinetic: 45.7 µg/mL (≈ 143 µM) for the first, > 38.1 µg/mL for the second.

Going from O=C(COC(=O)c1ccc(OC(F)F)cc1)NCc1cccs1 to C=C(C)C(=O)Nc1cccnc1Oc1ccc(F)cc1, the solubility kinetic rises from 35.5 µg/mL (≈ 104 µM) to > 40.8 µg/mL.

First: Cc1sc2ncnc(SCC(=O)NC3CCCC3)c2c1C
Second: O=C(COC(=O)/C=C/c1cccc(F)c1)NC1CCCC1
The solubility kinetic of the first is 1.5-fold lower: 5.2 µg/mL (≈ 16.2 µM) for the first, 7.8 µg/mL (≈ 26.8 µM) for the second.

Going from COC(=O)c1ccc(NC(=O)C2CCCN(S(C)(=O)=O)C2)cc1 (stereo not given) to COC(=O)c1cc(S(=O)(=O)N2CCCCC2C)c[nH]1 (stereo not given), the solubility kinetic rises from 31.8 µg/mL (≈ 93.4 µM) to > 43 µg/mL.

First: COc1ccc2c(C=O)cn(C)c2c1
Second: COc1cc2nc(NC(=O)c3ccccc3)sc(=O)c2cc1OC
The solubility kinetic of the first is higher: > 28.4 µg/mL for the first, < 0.4 µg/mL for the second.

Compared with CCOC(=O)c1c(/N=C/c2cccc([N+](=O)[O-])c2O)sc2c1CCC2, CCOc1c(O)ccc(/C=C2\SC(=S)NC2=O)c1[N+](=O)[O-] is 7.3-fold lower in solubility kinetic: 49.9 µg/mL (≈ 138 µM) for the first, 6.8 µg/mL (≈ 20.8 µM) for the second.

First: CCN1CCN(CC(=O)c2cc(Cl)ccc2Cl)CC1
Second: CN1CCN(/C=C(\C#N)S(=O)(=O)c2ccc(Cl)cc2)CC1
The solubility kinetic of the first is higher: > 45.2 µg/mL for the first, 44.1 µg/mL (≈ 135 µM) for the second.

Going from COc1cc2c(cc1/C=C/[N+](=O)[O-])OCO2 to COc1ccc(S(=O)(=O)N(C)CC(=O)NC2CC2)cc1OC, the solubility kinetic rises from 6.5 µg/mL (≈ 29.1 µM) to > 49.3 µg/mL.

Compared with CN1C2CCC1CC(NS(=O)(=O)c1ccc(C#N)cc1)C2 (stereo not given), CS(=O)(=O)N(CC(=O)Nc1ccc(Br)cc1F)C1CCCCC1 is higher in solubility kinetic: 45.6 µg/mL (≈ 149 µM) for the first, > 61.1 µg/mL for the second.

First: O=S(=O)(Nc1cccc(CCc2ccccn2)c1)c1cc(Cl)ccc1Cl
Second: Fc1cccc(Cl)c1/C=C/c1cnc2ccccc2n1
The solubility kinetic of the first is higher: 9.2 µg/mL (≈ 22.6 µM) for the first, < 0.3 µg/mL for the second.

O=C(COc1ccccc1C(=O)O)NC1CCCc2ccccc21 (stereo not given) and N#C/C(=C\c1ccccc1)C(=O)N1CCN(c2ccccc2F)CC1 are within 1.5-fold of each other in solubility kinetic: 13.8 µg/mL (≈ 42.4 µM) for the first, 20.4 µg/mL (≈ 60.8 µM) for the second.

Compared with Cc1ccc2sc(=O)[nH]c2c1, Cc1ccc(OCC(=O)Nc2c[nH]c(=O)[nH]c2=O)cc1C is 19-fold lower in solubility kinetic: 19.4 µg/mL (≈ 117 µM) for the first, 1 µg/mL (≈ 3.46 µM) for the second.

First: Cc1cc(=O)oc2cc(NC(=O)C3CCCC3)ccc12
Second: Cc1c(C(=O)N2CCN(S(=O)(=O)c3cccs3)CC2)oc2ccc(F)cc12
The solubility kinetic of the first is 4.5-fold lower: 3 µg/mL (≈ 11.1 µM) for the first, 13.6 µg/mL (≈ 33.3 µM) for the second.

NS(=O)(=O)c1ccc(NC(=O)Nc2ccc(C(F)(F)F)cc2)cc1 and COc1ccc(NC(=O)c2ccccc2NC(=O)c2ccco2)cc1 cannot be ordered by solubility kinetic: < 0.3 µg/mL for the first, < 0.4 µg/mL for the second.

CN(CCO)CC(O)CN(c1ccccc1)c1ccccc1.Cl (stereo not given) and O=C1C(=O)N(CCS(=O)(=O)c2ccccc2)c2ccccc21 cannot be ordered by solubility kinetic: 49.9 µg/mL for the first, > 47.3 µg/mL for the second.

Going from COc1ccccc1C(=O)Nc1c[nH]c(=O)[nH]c1=O to O=C1NC(=O)c2cc3ccccc3cc21, the solubility kinetic rises from 3.4 µg/mL (≈ 13 µM) to 10.6 µg/mL (≈ 53.8 µM) (3.1-fold).

O=C(OCC(=O)c1ccc[nH]1)C1=COCCO1 and CC1CCN(C(=O)COC(=O)CCC(=O)c2ccc(F)cc2)CC1 cannot be ordered by solubility kinetic: > 35.6 µg/mL for the first, > 50.3 µg/mL for the second.

Going from Clc1ccc(-c2nc(C3CCCCC3)no2)cc1 to O=C1Nc2ccccc2N2CCCC12 (stereo not given), the solubility kinetic rises from < 0.3 µg/mL to 27.5 µg/mL (≈ 146 µM).

Going from C#CC[N+](CC)(CC)CC#Cc1ccccc1.[Br-] to O=C(Cn1nc(Cl)nc1Cl)c1ccccc1, the solubility kinetic rises from 37.8 µg/mL to > 38.4 µg/mL.

For CCOC(=O)C1CCN(C(=O)/C=C/c2ccc(S(=O)(=O)N3CCOCC3)cc2)CC1, the solubility kinetic was > 65.5 µg/mL.
